Data from patent US11066693B2, “Methods for diagnosing LHRH or hCG/LH receptor expressing tumors, cancers and neoplasias” (ESPERANCE PHARMACEUTICALS, INC., priority 2009, dated 2021).
Ends that are not written are not given here.

Tests used:
[1] = system: MDA-MB-231 human breast cancer cell line; experiment: In vitro cytotoxicity, MTT cell viability assay; type: cell-based
Method: Incubations were conducted for 24 h at 37° C.

[2] = system: MDA-MB-4355 breast cancer cell line; conditions: read-out: Cytotoxicity evaluated as IC50 value; MDA-MB-4355, highest LHRH receptor capacity, 24 h at 37° C., MTT
Method: (§1) Studies were designed to test receptor specificity, correlation of sensitivity to LHRH receptor expression and initial efficacy kinetics in vitro by comparing targeted kinetics to untargeted kinetics. […] Cytotoxicity was evaluated as IC50 value for each cell line.
(§2) Cell cultures were prepared in 96 well plates using 10,000 cells/well and were allowed to attach for 48 hours. […] Incubations were conducted for 24 h at 37° C. Cell viability was determined using formazan conversion assays (MTT assays). Controls contained USP saline or 0.1% TritonX-100™ as reference for 0 and 100% cell death, respectively.
(§3) Data were processed and analyzed using Graph Pad Prizm 4™ software (Graph Pad Prizm, Inc). Statistical analysis for significance was determined by a two-tailed Student's T-test.

[3] = system: SKOV-3 LHRH receptor negative ovarian cancer cell line; conditions: read-out: Cytotoxicity evaluated as IC50 value, 24 h at 37° C., MTT
Method: as §1, §2, §3

[4] = system: LNCaP prostate cancer cell line; conditions: read-out: Cytotoxicity evaluated as IC50 value, 24 h at 37° C., MTT
Method: as §1, §2, §3

[5] = system: PC-3 prostate cancer cell line; conditions: read-out: Cytotoxicity evaluated as IC50 value; PC-3, 24 h at 37° C., MTT
Method: as §1, §2, §3

[6] = system: AN3-CA human endometrial cancer cell line; conditions: read-out: Cytotoxicity evaluated as IC50 value, 24 h at 37° C., MTT
Method: as §1, §2, §3

[7] = system: OVCAR-3 ovarian cancer cell line; conditions: read-out: Cytotoxicity evaluated as IC50 value; OVCAR-3, 24 h at 37° C., MTT
Method: as §1, §2, §3

Row | Compound | Sensitivity of cell line to the drug ([1]; MDA-MB-231, multi drug resistant) | IC50 [2] [µM] | IC50 [3] [µM] | IC50 [4] [µM] | IC50 [5] [µM] | IC50 ([1]; MDA-MB-231 (ER, Her2/neu, PR negative, multi drug resistant), 24 h at 37° C., MTT, read-out: Cytotoxicity evaluated as IC50 value) [µM] | IC50 [6] [µM] | IC50 [7] [µM]
1 | N.N.[Cl][Pt][Cl] [cisplatinum, reference compound] | insensitive | – | – | – | – | – | – | –
2 | KFAKFAKKFAKFAKKFAKQHWSYGLRPG [EP-100] | – | 0.8 | > 10 | 1.5 | 5.5 | 5.5 | 3.3 | 3
